Tests used:
[1] = tested on: synovial fibroblasts / human cartilage; test: In vitro cartilage degradation by synovial fibroblasts from a RA patient, release of sGAG; format: cell-based
Method: (§1) The effect of RXR antagonists on the activity of synovial fibroblasts, dependent on their state of activation, i.e. modified by a concomitant stimulation by the inflammatory cytokine Interleukin-1β (IL-1β), is determined. Furthermore, it is determined whether this is accompanied by a modulation in the accumulation of the mRNA encoding catabolic enzyme matrix metalloproteinase-1 (MMP-1), responsible for degradation of human cartilage and consequently joint destruction in man. Adherent synovial fluid cells taken from a patient with RA are used after 5 passages in an in vitro assay for cartilage destruction. The cells incubated in flasks coated with 0.1% (0.1 g/100 ml) human cartilage powder are fixed using Matrigel® (BD Biosciences, Becton, Dickinson & Co., Boston, Miss., USA). The release of sulphated glycosaminoglycan (sGAG) into the culture medium is monitored by a commercial calorimetric test according to a method described by S. Björnsson, see Anal. Biochem. 256, 229-237 (1998) using an alcian blue dot plot analysis, and the accumulation of mRNA encoding MMP-1 is quantified by real time PCR (TaqMan® (Roche Diagnostics, Basle, Switzerland)).
The retinoid agonists all-trans retinoic acid and 9-cis retinoic acid, both physiological metabolites of vitamin A, as well as the RXR antagonist compound A, diluted first in ethanol, and then diluted with vehicle or medium to the desired dose/concentration are tested in a time course (0-35 days for the in vitro assay, 0-48 hours for MMP-1 mRNA, see tables 7, 8 and 10) and dose-dependent (10^−7 to 10^−9 M, see tables 5, 6 and 9). This is conducted in the presence or absence of IL-1β (100 pg/ml).

human skin [2] = test: Clinical pilot trial: inflammation potential on healthy, non-inflamed human skin (epicutaneous); format: in vivo
From the text: In a clinical pilot trial on one healthy volunteer compound A is applied epicutaneously in a concentration of 1% for its inflammation potential compared to that of the strong inflammation inducing agent 9-cis RA in concentrations of 0.1%, 0.3% and 1%.
The compounds are solved or suspended in ethanol/propylene glycol (1:1). They are applied epicutaneously twice daily, 7 days a week, for two consecutive weeks. The site of application is an area of 3×3=9 cm^2 on the abdominal skin. The volume is 0.1 ml per application.
The following signs and symptoms of skin inflammation are recorded: Erythema, desquamation (scaling), pruritus, burning, pain, exsudation, edema, ulceration. They are classified on a scale of:
Treatment period lasts from day 1 to 14, the post-treatment observation period from day 15 to day 28

MMP-1 mRNA = MMP-1 mRNA accumulation in synovial fibroblasts (real time PCR); format: cell-based, human
Method: as §1, with “Switzerland)). […] This is conducted in the presence or absence of IL-1β (100 pg/ml).” for “Switzerland)).”

normal skin of mice = test: Effect on normal, non-inflamed skin of mice; format: in vivo, mice (C57BL/6); details: mouse ears
Method: The effect of the RXR antagonist compound A on normal skin of mice is investigated. The ears of C57BL/6 mice are treated epicutaneously (topically) for 4 consecutive days with compound A in a concentration of 0.05% and 2.5% in acetone/ethanol (1:1, v/v). Comparison with vehicle control. Daily observation of skin reactions, in particular inflammation, erythema, desquamation, and edema follows. Myeloperoxidase (MPO) activity is determined. The activity of MPO is considered the most sensitive criterium for the assessment of inflammation of the skin (see above, Examples 1 and 2).

human skin [3] = test: Clinical pilot trial: preventive and therapeutic effect on 9-cis RA induced human skin inflammation; format: in vivo; details: Therapy: 9-cis RA 0.3% day 1 to day 14, compound A 1% from day 15
Method: In this pilot clinical trial on one healthy volunteer, the substance 9-cis RA and compound A are administered epicutaneously. The inflammation-inducing agent 9-cis RA is used in a concentration of 0.3%. The RXR antagonist compound A is applied in a concentration of 1%. The compounds are solved in ethanol/propylene glycol (1:1) and administered twice daily. The site of application is the abdominal skin, with various areas of 3×3=9 cm^2. Volume per application is 0.1 ml.
The following three clinical settings at different sites are chosen:
1. Induction of Skin Inflammation by 9-cis RA • 9-cis RA is administered as a 0.3% solution twice daily from day 1 to day 14. The vehicle is administered from day 15 to disappearances of skin inflammation.
2. Prevention of 9-cis RA-Induced Skin Inflammation by RXR Antagonist Compound A • 9-cis RA solution of 0.3% is administered twice daily from day 1 to day 14, each time followed subsequently by application of compound A as a 1% solution.
3. Therapy of 9-Cis RA-Induced Skin Inflammation by RXR Antagonist Compound A • 9-cis RA solution of 0.3% is administered twice daily from day 1 to day 14. Compound A as a 1% solution is administered from day 15 until disappearance of skin inflammation.
The signs and symptoms of skin inflammation are recorded on a 0-4 scale, as described in example 16. […]

human skin [4] = test: Clinical phase I trial: skin inflammation induced by Candidin or UV-B irradiation in healthy volunteers; format: in vivo; details: Candidin intradermal or UV-B induced, topical treatment days 1-3, 4 volunteers; compound A 1% lotion, comparators as creams
Method: Four healthy volunteers participate. Inclusion criteria are: Age above 18 years, male or female. They are informed, with written letter of consent. Exclusion criteria are: Preexistant dermatological diseases, known allergy to test agents.
Inflammation inducing agents: Candidin is administered intradermally (see also D. Poffet, Comparaison entre le pouvoir vaso-constricteur d'un corticoide topique et l'inhibition de la dermite à la candidine après intradermoréaction (IDR). Thèse, Université de Genève, 1984). UV-B rays are administered by a UV-B lamp.
Inflammation is measured quantitatively. The area of the inflamed skin is measured in cm^2. The thickness of the skin is monitored by Ultrasound at 20 MHz. Erythema is measured by calorimetric determination employing a Minolta CR 20. […]
All determinations are recorded on a scale from 0 to 4: • 0=no reduction • 1=slight reduction (10 to 20%) • 2=moderate reduction (21 to 40%) • 3=marked reduction (41 to 70%) • 4=very marked reduction (71 to 100%) • Compared to vehicle control.

For `CC1=C(/C=C/C(C)=C\C=C\C(C)=C\C(=O)O)C(C)(C)CCC1` [9-cis RA, 9-cis retinoic acid], the “sGAG in μg/ml (release of sGAG/14 days)” value ([1]; 10^−7 M, absence of IL-1β) was 189 µg/mL, the “sGAG in μg/ml (release of sGAG/14 days)” value ([1]; 10^−7 M, presence of 100 pg/ml IL-1β) was 221 µg/mL and the “sGAG in μg/ml (release of sGAG/14 days)” value ([1]; 10^−8 M, absence of IL-1β) was 107 µg/mL. For the same compound, the “Cumulative μg/ml sGAG/14 days” value ([1]; 10^−8 M, absence of IL-1β, day 7) was 44 µg/mL, the “Cumulative μg/ml sGAG/14 days” value ([1]; 10^−8 M, absence of IL-1β, day 14) was 107 µg/mL and the “Cumulative μg/ml sGAG/14 days” value ([1]; 10^−8 M, absence of IL-1β, day 21) was 206 µg/mL. For the same compound, the “Cumulative μg/ml sGAG/14 days” value ([1]; 10^−8 M, absence of IL-1β, day 28) was 253 µg/mL, the “Cumulative μg/ml sGAG/14 days” value ([1]; 10^−8 M, absence of IL-1β, day 35) was 292 µg/mL and the “sGAG in μg/ml (release of sGAG/14 days)” value ([1]; 10^−8 M, presence of 100 pg/ml IL-1β) was 189 µg/mL. For the same compound, the “Cumulative μg/ml sGAG/14 days” value ([1]; 10^−8 M, presence of 100 pg/ml IL-1β, day 7) was 68 µg/mL, the “Cumulative μg/ml sGAG/14 days” value ([1]; 10^−8 M, presence of 100 pg/ml IL-1β, day 14) was 189 µg/mL and the “Cumulative μg/ml sGAG/14 days” value ([1]; 10^−8 M, presence of 100 pg/ml IL-1β, day 21) was 330 µg/mL. The “Cumulative μg/ml sGAG/14 days” value ([1]; 10^−8 M, presence of 100 pg/ml IL-1β, day 28) was 407 µg/mL, the “Cumulative μg/ml sGAG/14 days” value ([1]; 10^−8 M, presence of 100 pg/ml IL-1β, day 35) was 441 µg/mL and the “sGAG in μg/ml (release of sGAG/14 days)” value ([1]; 10^−9 M, absence of IL-1β) was 64 µg/mL. The “sGAG in μg/ml (release of sGAG/14 days)” value ([1]; 10^−9 M, presence of 100 pg/ml IL-1β) was 204 µg/mL, the “time after discontinuation of treatment until inflammation decreases to 0” value (human skin [2]; 0.1% to 1.0%, depending on the concentration (days 18 to 22)) was 4 to 8 days and the “signs or symptoms of skin inflammation” value (human skin [2]; 0.1%, 0.3% and 1.0% epicutaneous twice daily, around the tenth and eleventh day) was “slight erythema, desquamation and pruritus”. For the same compound, the “signs or symptoms of skin inflammation” value (human skin [2]; 0.1%, 0.3% and 1.0% epicutaneous twice daily, first 9 days after start of treatment, one volunteer) was “no signs or symptoms of skin inflammation”, the “signs or symptoms of skin inflammation” value (human skin [2]; 0.1 and 0.3% epicutaneous twice daily, days 12, 13 and 14) was “moderate inflammation” and the “signs or symptoms of skin inflammation” value (human skin [2]; 1.0% epicutaneous twice daily, days 12, 13 and 14) was “marked inflammation”. The “MMP-1 mRNA in relative units (fold increase of baseline value)” value (MMP-1 mRNA; 10^−7 M, after 24 hours) was 2.60 relative units, the “MMP-1 mRNA in relative units (fold increase of baseline value)” value (MMP-1 mRNA; 10^−8 M, 0 hours) was 1 relative units and the “MMP-1 mRNA in relative units (fold increase of baseline value)” value (MMP-1 mRNA; 10^−8 M, 2 hours) was 0.98 relative units. For the same compound, the “MMP-1 mRNA in relative units (fold increase of baseline value)” value (MMP-1 mRNA; 10^−8 M, 6 hours) was 1.31 relative units, the “MMP-1 mRNA in relative units (fold increase of baseline value)” value (MMP-1 mRNA; 10^−8 M, 12 hours) was 3.39 relative units and the “MMP-1 mRNA in relative units (fold increase of baseline value)” value (MMP-1 mRNA; 10^−8 M, 24 hours) was 3.79 relative units. The “MMP-1 mRNA in relative units (fold increase of baseline value)” value (MMP-1 mRNA; 10^−8 M, 48 hours) was 1.47 relative units, the “MMP-1 mRNA in relative units (fold increase of baseline value)” value (MMP-1 mRNA; 10^−8 M, after 24 hours) was 3.39 relative units and the “MMP-1 mRNA in relative units (fold increase of baseline value)” value (MMP-1 mRNA; 10^−9 M, after 24 hours) was 1.54 relative units.

With `CCCCOc1c(\C(C)=C/C=C/C(C)=C/C(=O)O)cc(C(C)(C)C)cc1C(C)(C)C` [compound A, (2E,4E,6Z)-7-[2-butoxy-3,5-bis(1,1-dimethylethyl)-phenyl]-3-methyl-2,4,6-octatrienoic acid] the “MPO activity compared to the vehicle control, normal skin” value (normal skin of mice; compound A 0.05%, epicutaneous, 4 days) was “no significant change”, the “MPO activity in % of that of the vehicle control, normal skin” value (normal skin of mice; compound A 2.5%, epicutaneous, 4 days) was 57% and the “clinical signs or symptoms of a skin inflammation on normal skin” value (normal skin of mice; epicutaneous 0.05% and 2.5% in acetone/ethanol, 4 consecutive days) was “does not induce clinical signs or symptoms of a skin inflammation”. The “reduction of all parameters in comparison to the values of 9-cis RA” value (human skin [3]) was no less than 50%, the “reduction of the inflammatory reaction compared to vehicle control (skin thickness, erythema, area of inflamed skin)” value (human skin [4]) was “very marked” and the “skin inflammation, objective or subjective symptoms” value (human skin [2]; 1% epicutaneous twice daily day 1-14, observation to day 28) was “no skin inflammation”.

From patent publication US20080242729A1, “Rxr Antagonists in the Treatment of Inflammatory Diseases” (priority 2004, published 2008)
